Reference: article PMC10299677, “Fluorinated Benzofuran and Dihydrobenzofuran as Anti-Inflammatory and Potential Anticancer Agents” (International Journal of Molecular Sciences, 2023)
“Also recorded” adds a separate entry of the source.

What follows are compounds tested against T1, COX-1 (Homo sapiens, UniProt P23219) (assay: COX-1 activity: PGE2 from exogenous arachidonic acid in HEK-293 cells overexpressing COX-1). Settings: 10 µM for compounds 1, 7, 9, 50 µM for others; 10 µM arachidonic acid.
T1 construct: expressed in transfected cells
Type: cell-based
Procedure: Figure 3 Effects of the fluorinated benzofuran and dihydrobenzofuran on COX-1 and COX-2 activities. (A) Illustration for COX-1 activity assay. HEK-293 cells stably overexpressing COX-1 are treated with the nine derivatives of benzofuran at concentrations of only 10 µM for compounds 1, 7, and 9, and 50 µM for the other compounds, 30 min prior to the addition of 10 µM arachidonic acid (AA). […] (B) COX-1 activity. […] Levels of PGE2 were very low in the absence of arachidonic acid (0.04 ± 0.01 ng/mL) and 104.3 ± 16.7 ng/mL for 10 µM AA. (C) Illustration for COX-2 activity determination. Macrophages are treated with 10 µM of aspirin (ASA) for 30 min to block basal COX activity, washed, and treated with 10 ng/mL LPS for 24 h to induce COX-2. Cells are then washed and incubated 30 min with 50 µM of the different compounds prior to the addition of 10 µM of AA. The produced PGE2 mainly reflects COX-2 activity. (D) COX-2 activity. Percentage of LPS-treated cells was calculated, and data are represented as mean ± SEM (n = 4); * p < 0.05 versus AA for COX-1 activity, and versus LPS + ASA + AA for COX-2 activity (one-way ANOVA followed by Dunnett’s test). […] Levels of PGE2 were very low in the absence of arachidonic acid (0.06 ± 0.01 ng/mL) and 71.7 ± 5.7 ng/mL for 10 µM AA.
COX-1 and COX-2 activities were performed as described previously in human embryonic kidney cell line (HEK-293) stably overexpressing COX-1 [19] and in macrophages, respectively. […] For both COX-1 and COX-2 assays, the benzofuran compounds were then added to the cells for 30 min prior to the incubation with 10 µM arachidonic acid for another 30 min. PGE2 was then measured using an enzyme immunoassay, as described previously.
IL-6, CCL2, nitrite (for NO), and PGE2 concentrations from 3–5 independent experiments were expressed as percentage of LPS alone and as mean ± SEM. COX activity was determined as percentage of PGE2 produced from exogenous arachidonic acid. Curve fitting and calculation of IC50 values were performed using GraphPad Prism (version 9.5.1 Software, La Jolla, CA, USA).

T1 sequence (P23219 24-599): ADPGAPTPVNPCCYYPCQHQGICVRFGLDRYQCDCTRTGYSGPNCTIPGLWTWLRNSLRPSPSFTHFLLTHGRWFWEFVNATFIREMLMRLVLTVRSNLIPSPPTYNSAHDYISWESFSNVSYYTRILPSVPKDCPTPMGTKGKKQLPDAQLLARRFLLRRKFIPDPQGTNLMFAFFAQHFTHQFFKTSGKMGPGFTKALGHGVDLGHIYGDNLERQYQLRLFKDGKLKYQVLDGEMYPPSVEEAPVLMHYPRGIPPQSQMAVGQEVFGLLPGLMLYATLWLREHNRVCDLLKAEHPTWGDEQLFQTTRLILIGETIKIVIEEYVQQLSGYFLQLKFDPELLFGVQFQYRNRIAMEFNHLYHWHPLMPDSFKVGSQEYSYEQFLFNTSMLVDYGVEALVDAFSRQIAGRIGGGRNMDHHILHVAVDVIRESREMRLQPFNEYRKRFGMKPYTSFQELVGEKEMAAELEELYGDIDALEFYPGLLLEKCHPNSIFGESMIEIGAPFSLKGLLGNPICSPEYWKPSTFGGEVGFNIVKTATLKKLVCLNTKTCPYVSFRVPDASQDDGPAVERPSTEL

**Q.** How did the “effect on COX-1 activity” value turn out when `O=C(O)/C=C1\Oc2ccc(Br)cc2C1(F)F` [Compound 3] was run?
**A.** significantly reduced

**Q.** `O=C(O)Cc1oc2ccc(-c3ccccc3)cc2c1F` [Compound 5] was tested. Which “effect on COX-1 activity” value did it give?
**A.** direct inhibitory effect

**Q.** Which “effect on COX-1 activity” value does the source give for `C=C(C)c1ccc2oc(CC(=O)O)c(F)c2c1` [Compound 6] here?
**A.** significantly reduced; also recorded: direct inhibitory effect

**Q.** Which “effect on COX-1 activity” value does the source give for `COC(=O)CC1(O)Oc2ccc(Br)cc2C1(F)F` (stereo not shown) [Compound 8] here?
**A.** without any effect

Same assay, conditions: HEK-293 overexpressing COX-1, compounds 30 min prior to 10 µM arachidonic acid

**Q.** How did the IC50 turn out when `O=C(O)/C=C1\Oc2ccc(Br)cc2C1(F)F` [Compound 3] was run?
**A.** 7.9 µM

**Q.** With `C=C(C)c1ccc2oc(CC(=O)O)c(F)c2c1` [Compound 6] as the compound, how does the IC50 read?
**A.** 5 µM

What follows are compounds tested on NF-κB or Iκ-Bα phosphorylation (assay: NF-κB and IκBα phosphorylation in LPS-treated macrophages (Western blot)). Settings: compounds 30 min prior to 1 h LPS.
Type: cell-based, C57BL/6J mice
Procedure: Macrophages were incubated with the compounds for 30 min prior to the addition of 10 ng/mL LPS for 24 h. Protein levels for COX-2 and NOS2 were detected in LPS-stimulated macrophages. As previously described, 10 µg of total protein was assessed. The primary antibodies were developed and characterized as previously described: for COX-2, mouse monoclonal antibody anti-COX-2 (clone COX-214, 1/5000); for NOS2, rabbit polyclonal antibody anti-NOS2 (dilution1/2000 [33]). Antibodies anti-phospho-NF-κB (3033S), phospho-IκBα (9246S), and total IκBα (4814S) were from Cell Signaling Technologies (Danvers, MA, USA). Total NF-κB C-20 (sc-372) was from Santa Cruz Biotechnologies (Dallas, TX, USA), and mouse β-actin (dilution 1/10,000) (Sigma-Aldrich, A5441). Clarity™ western ECL substrate (Bio-Rad Laboratories 10-5061) was used according to the manufacturer’s instructions to reveal positive bands visualized using Bio-Rad ChemiDoc. For Bcl-2 and cleaved PARP-1, HCT116 cells were plated in 6-well plates (200,000 cells per well) for 24 h, and treated with compounds 1 and 2 at 10, 25, and 50 µM for 72 h. Supernatants and cells were collected and lysed using RIPA lysis buffer containing inhibitors of protease. Western blot of Bcl-2 and cleaved PARP-1 was performed using 25 µg of total protein with a rabbit polyclonal antibody anti-Bcl-2 (1/500) (Santa Cruz Biotechnology, sc-492), rabbit polyclonal antibody anti-PARP-1 (1/1000) (Santa Cruz Biotechnology, sc-7150), and mouse anti-β-actin (dilution 1/10,000) (Sigma-Aldrich, A5441).
F i g u re S4: Phosphorylation of NF-κB and IκBα kinetics in LPS-treated macrophages. (A) Kinetics of the phosphorylation of NF-κB and IκBα in macrophages. Cells were treated with 10 ng/mL LPS for different time points and protein expression was assessed by western blot. We determine that 1 hour incubation with LPS is efficient for the phosphorylation of NF-κB and IκBα phosphorylation; (B) Macrophages were treated with the tested compounds for 30 minutes prior to 1 hour-treatment with LPS. β-actin was used as a loading control and densitometric analysis was done ImageJ Software (NIH, MA). Data are ex pressed as fold of LPS-treated macrophages and represented as mean ± S.E.M. of 3 different experiments, *p<0.05 versus LPS (One-w a y Anova followed by the Dunnett’s test). […]

**Q.** Which “effect on NF-κB or Iκ-Bα phosphorylation induced by LPS” value (shortened to “effect … by LPS”) does the source give for `COC(=O)/C=C1/Oc2ccc(Br)cc2C1(F)F` [Compound 1] here?
**A.** did not modify

**Q.** How did the “effect … by LPS” value turn out when `O=C(O)/C=C1/Oc2ccc(Br)cc2C1(F)F` [Compound 2] was run?
**A.** did not modify

**Q.** `O=C(O)/C=C1\Oc2ccc(Br)cc2C1(F)F` [Compound 3] was tested. Which “effect … by LPS” value did it give?
**A.** did not modify

**Q.** How did the “effect … by LPS” value turn out when `COC(=O)CC1(O)Oc2ccc(Br)cc2C1(F)F` (stereo not shown) [Compound 8] was run?
**A.** did not modify
